Measurements as given in PMC6430387, “Vertebrate odorant binding proteins as antimicrobial humoral components of innate immunity for pathogenic microorganisms” (PLoS ONE, 2019).
pIC50, pKd: −log10 of the molar value. Each block holds one compound with its values, some of them ahead of it.

Columns and labels:
Format in all cases: binding
bovine OBP (6-His-bOBP) [1] = molecular target: T1, bovine OBP (6-His-bOBP) (Bos taurus, UniProt P07435); assay: retention on OBP-Ni-NTA agarose filter; chromatography-MS; conditions: 10-40 μM ligand loaded; submillimolar immobilised OBP; uncoupled resin as control
T1 construct: domain-swapped homodimer
T1 sequence (P07435 1-159): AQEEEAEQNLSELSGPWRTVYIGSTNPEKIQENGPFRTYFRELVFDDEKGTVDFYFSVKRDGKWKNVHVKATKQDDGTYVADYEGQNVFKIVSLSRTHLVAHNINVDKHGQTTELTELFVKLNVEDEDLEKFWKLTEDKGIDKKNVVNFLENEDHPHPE

bovine OBP (6-His-bOBP) [2] = molecular target: T1, bovine OBP (6-His-bOBP); assay: direct fluorescence titration
porcine OBP (6-His-pOBP) [3] = molecular target: T2, porcine OBP (6-His-pOBP) (Sus scrofa, UniProt P81245); assay: direct fluorescence titration
T2 construct: monomer
T2 sequence (P81245 1-157): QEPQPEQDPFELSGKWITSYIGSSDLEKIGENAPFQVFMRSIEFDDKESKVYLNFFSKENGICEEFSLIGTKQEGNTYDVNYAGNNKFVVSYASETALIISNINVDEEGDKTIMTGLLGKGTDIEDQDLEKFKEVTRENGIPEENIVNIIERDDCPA

porcine OBP (6-His-pOBP) [4] = molecular target: T2, porcine OBP (6-His-pOBP); assay: retention on OBP-Ni-NTA agarose filter; eluate quantified; conditions: 5 and 10 μM ligand loaded; submillimolar immobilised OBP; uncoupled resin as control
bovine OBP (6-His-bOBP) [5] = molecular target: T1, bovine OBP (6-His-bOBP); assay: competitive displacement of 1-aminoanthracene, fluorescence; conditions: read-out: Kdapp
porcine OBP (6-His-pOBP) [6] = molecular target: T2, porcine OBP (6-His-pOBP); assay: as above; conditions: read-out: Kdapp
porcine OBP (6-His-pOBP) [7] = molecular target: T2, porcine OBP (6-His-pOBP); assay: retention on OBP-Ni-NTA agarose filter, chromatography-MS; conditions: 0.34 μM ligand loaded; submillimolar immobilised OBP

- pIC50 (bovine OBP (6-His-bOBP) [5]): 5.43
- pIC50 (porcine OBP (6-His-pOBP) [6]): 6.11
SMILES: CC(C)=CCC/C(C)=C/CC/C(C)=C/CO [farnesol]

- % bound (porcine OBP (6-His-pOBP) [7]): 89.2±2.4%
SMILES: CCCCCCCCCC(=O)CC(=O)N[C@H]1CCOC1=O [oxo-C12AHL, N-(3-oxododecanoil)-L-homoserine-lactone]

The remaining lines, values behind:

SMILES: CCCC(=O)N[C@H]1CCOC1=O [C4AHL, N-butyryl-L-homoserine-lactone]
- % retention (bovine OBP (6-His-bOBP) [1]): 63.2±5.8%-80.6±4.2%

SMILES: Nc1cccc2cc3ccccc3cc12 [1-aminoanthracene]
- pKd (bovine OBP (6-His-bOBP) [2]): 6.14
- pKd (porcine OBP (6-His-pOBP) [3]): 6.11

SMILES: Cn1c2cccc(=O)c-2nc2ccccc21 [pyocyanin]
- % retention (porcine OBP (6-His-pOBP) [4]): 66±13% and 85±15%
